Key:
Experiment in all cases: Carna kinome panel
Assay type in all cases: biochemical
Conditions in all cases: read-out: % Inhibition at 10 μM of the test compound
ALK(G1202R) = ALK(G1202R) (Homo sapiens (Human), UniProt Q9UM73, G1202R)
CDK6/CycD3 = CDK6/CycD3 (Homo sapiens (Human), UniProt Q00534)
SRPK2 = SRPK2 (Homo sapiens (Human), UniProt P78362)
TNK1 = TNK1 (Homo sapiens (Human), UniProt Q13470)
CaMK1δ = CaMK1δ (Homo sapiens (Human), UniProt Q8IU85)
PIM2 = PIM2 (Homo sapiens (Human), UniProt Q9P1W9)
SGK2 = SGK2 (Homo sapiens (Human), UniProt Q9HBY8)
EEF2K = EEF2K (Homo sapiens (Human), UniProt O00418)
AurA/TPX2 = AurA/TPX2 (Homo sapiens (Human), UniProt O14965)
RON = RON (Homo sapiens (Human), UniProt Q04912)
MAP4K2 = MAP4K2 (Homo sapiens (Human), UniProt Q12851)
TAK1-TAB1_Cascade = TAK1-TAB1_Cascade (Homo sapiens (Human), UniProt O43318)
PKCη = PKCη (Homo sapiens (Human), UniProt P24723)
PDHK4 = PDHK4 (Homo sapiens (Human), UniProt Q16654)
PAK5 = PAK5 (Homo sapiens (Human), UniProt Q9P286)
FGR = FGR (Homo sapiens (Human), UniProt P09769)
ROS = ROS (Homo sapiens (Human), UniProt P08922)
CLK1 = CLK1 (Homo sapiens (Human), UniProt P49759)
PLK1 = PLK1 (Homo sapiens (Human), UniProt P53350)
JAK2 = JAK2 (Homo sapiens (Human), UniProt O60674)
CLK3 = CLK3 (Homo sapiens (Human), UniProt P49761)
EPHA4 = EPHA4 (Homo sapiens (Human), UniProt P54764)
PKACα = PKACα (Homo sapiens (Human), UniProt P17612)
DYRK1A = DYRK1A (Homo sapiens (Human), UniProt Q13627)
MAP3K3_Cascade = MAP3K3_Cascade (Homo sapiens (Human), UniProt Q99759)
SLK = SLK (Homo sapiens (Human), UniProt Q9H2G2)
PIM1 = PIM1 (Homo sapiens (Human), UniProt P11309)
PKCα = PKCα (Homo sapiens (Human), UniProt P17252)
TEC = TEC (Homo sapiens (Human), UniProt P42680)
MAP3K5_Cascade = MAP3K5_Cascade (Homo sapiens (Human), UniProt Q99683)
DLK_Cascade = DLK_Cascade (Homo sapiens (Human), UniProt Q12852)
FER = FER (Homo sapiens (Human), UniProt P16591)
ROCK2 = ROCK2 (Homo sapiens (Human), UniProt O75116)
BTK = BTK (Homo sapiens (Human), UniProt Q06187)
SGK3 = SGK3 (Homo sapiens (Human), UniProt Q96BR1)
SYK = SYK (Homo sapiens (Human), UniProt P43405)
MST3 = MST3 (Homo sapiens (Human), UniProt Q9Y6E0)
AMPKα2/β1/γ1 = AMPKα2/β1/γ1 (Homo sapiens (Human), UniProt P54646)
AKT2 = AKT2 (Homo sapiens (Human), UniProt P31751)
MAPKAPK 5 = MAPKAPK 5 (Homo sapiens (Human), UniProt Q8IW41)
PKN1 = PKN1 (Homo sapiens (Human), UniProt Q16512)
Chain of PKN1 (Q16512 whole entry): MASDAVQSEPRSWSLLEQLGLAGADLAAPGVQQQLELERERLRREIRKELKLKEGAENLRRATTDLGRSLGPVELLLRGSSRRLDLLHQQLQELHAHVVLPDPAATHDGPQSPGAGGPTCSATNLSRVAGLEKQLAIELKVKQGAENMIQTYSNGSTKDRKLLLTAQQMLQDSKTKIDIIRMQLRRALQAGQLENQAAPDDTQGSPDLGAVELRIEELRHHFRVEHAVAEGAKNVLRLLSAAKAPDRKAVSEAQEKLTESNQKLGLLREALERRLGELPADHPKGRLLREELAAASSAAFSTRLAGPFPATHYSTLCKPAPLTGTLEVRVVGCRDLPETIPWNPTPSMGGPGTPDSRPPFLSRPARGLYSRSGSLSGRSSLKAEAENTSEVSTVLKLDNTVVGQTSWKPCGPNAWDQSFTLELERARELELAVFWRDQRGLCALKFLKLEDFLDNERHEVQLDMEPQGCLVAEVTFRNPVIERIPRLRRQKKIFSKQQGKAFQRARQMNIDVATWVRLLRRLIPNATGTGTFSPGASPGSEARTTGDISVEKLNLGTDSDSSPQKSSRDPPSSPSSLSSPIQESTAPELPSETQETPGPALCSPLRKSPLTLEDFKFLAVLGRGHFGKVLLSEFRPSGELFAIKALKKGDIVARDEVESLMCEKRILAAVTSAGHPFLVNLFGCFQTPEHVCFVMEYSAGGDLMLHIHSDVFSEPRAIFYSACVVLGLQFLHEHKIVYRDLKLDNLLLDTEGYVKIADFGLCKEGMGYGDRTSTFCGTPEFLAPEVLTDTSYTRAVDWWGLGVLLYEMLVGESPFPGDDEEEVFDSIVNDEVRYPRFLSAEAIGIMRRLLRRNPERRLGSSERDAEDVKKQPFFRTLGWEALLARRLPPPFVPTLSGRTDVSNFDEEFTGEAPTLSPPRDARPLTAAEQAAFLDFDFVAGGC

Chain of AurA/TPX2 (O14965 whole entry, looked up): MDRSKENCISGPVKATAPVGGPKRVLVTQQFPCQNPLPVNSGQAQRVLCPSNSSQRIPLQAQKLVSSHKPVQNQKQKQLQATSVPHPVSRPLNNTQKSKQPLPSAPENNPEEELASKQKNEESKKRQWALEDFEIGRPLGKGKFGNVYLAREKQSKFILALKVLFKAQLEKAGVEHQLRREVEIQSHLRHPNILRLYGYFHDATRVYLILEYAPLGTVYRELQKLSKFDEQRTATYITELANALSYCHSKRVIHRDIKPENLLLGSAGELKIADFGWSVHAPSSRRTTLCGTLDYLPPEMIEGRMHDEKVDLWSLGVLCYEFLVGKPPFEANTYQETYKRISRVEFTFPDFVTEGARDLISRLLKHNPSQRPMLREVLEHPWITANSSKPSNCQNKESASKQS
Chain of AurA/TPX2 (Q9ULW0 whole entry partner, looked up): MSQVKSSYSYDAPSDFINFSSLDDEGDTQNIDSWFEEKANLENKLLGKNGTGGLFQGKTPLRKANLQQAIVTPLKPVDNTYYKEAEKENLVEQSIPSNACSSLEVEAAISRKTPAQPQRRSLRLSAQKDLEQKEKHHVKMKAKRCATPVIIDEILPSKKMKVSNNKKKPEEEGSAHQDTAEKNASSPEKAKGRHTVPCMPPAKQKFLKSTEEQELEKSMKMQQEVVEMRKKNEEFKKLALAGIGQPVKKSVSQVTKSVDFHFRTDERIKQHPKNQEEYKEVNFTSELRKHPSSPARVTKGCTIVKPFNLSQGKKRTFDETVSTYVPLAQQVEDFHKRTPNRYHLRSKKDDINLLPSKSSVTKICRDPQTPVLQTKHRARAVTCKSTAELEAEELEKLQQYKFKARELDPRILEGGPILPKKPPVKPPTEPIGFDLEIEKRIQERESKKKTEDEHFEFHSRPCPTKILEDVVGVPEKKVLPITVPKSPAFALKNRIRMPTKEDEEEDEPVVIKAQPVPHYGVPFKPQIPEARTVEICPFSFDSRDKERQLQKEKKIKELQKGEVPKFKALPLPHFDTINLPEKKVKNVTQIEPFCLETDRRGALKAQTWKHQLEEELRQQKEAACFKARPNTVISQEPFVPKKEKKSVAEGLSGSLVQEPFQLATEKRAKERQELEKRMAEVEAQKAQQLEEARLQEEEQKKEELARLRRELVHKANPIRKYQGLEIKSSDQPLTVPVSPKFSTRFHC
Chain of PLK1 (P53350 whole entry): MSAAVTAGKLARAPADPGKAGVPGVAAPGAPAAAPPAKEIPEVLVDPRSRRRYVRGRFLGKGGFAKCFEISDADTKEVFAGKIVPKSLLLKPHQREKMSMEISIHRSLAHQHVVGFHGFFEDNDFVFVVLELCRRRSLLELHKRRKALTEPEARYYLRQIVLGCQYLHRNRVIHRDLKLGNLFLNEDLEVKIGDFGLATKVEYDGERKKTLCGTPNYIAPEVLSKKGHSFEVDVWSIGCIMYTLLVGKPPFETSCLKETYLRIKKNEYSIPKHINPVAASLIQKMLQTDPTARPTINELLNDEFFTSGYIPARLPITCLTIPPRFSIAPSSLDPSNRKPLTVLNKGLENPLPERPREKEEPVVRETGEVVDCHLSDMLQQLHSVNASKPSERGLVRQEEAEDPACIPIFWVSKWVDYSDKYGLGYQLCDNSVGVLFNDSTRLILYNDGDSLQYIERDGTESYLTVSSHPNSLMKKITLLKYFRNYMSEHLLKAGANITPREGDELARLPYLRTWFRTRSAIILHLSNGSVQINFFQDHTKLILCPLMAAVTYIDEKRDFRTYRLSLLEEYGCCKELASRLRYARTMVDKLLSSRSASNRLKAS
Chain of MAP3K3_Cascade (Q99759 whole entry): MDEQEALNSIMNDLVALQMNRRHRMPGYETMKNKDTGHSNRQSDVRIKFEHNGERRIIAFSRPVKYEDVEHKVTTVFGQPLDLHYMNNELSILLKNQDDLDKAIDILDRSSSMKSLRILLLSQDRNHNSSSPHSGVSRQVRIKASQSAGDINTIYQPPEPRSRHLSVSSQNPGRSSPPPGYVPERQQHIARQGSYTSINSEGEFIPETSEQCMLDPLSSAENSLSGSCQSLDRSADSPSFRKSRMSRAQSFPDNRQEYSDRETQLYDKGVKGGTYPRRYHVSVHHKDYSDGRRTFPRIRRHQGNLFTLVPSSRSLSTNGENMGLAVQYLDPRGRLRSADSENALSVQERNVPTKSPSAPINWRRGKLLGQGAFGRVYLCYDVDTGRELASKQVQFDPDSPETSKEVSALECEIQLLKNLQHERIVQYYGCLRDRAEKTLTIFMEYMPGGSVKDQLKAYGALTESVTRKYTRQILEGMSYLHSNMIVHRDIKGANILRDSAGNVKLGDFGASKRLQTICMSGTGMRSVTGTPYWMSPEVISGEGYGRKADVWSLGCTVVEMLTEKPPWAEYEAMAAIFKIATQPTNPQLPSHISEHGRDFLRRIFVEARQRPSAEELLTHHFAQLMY
Chain of CaMK1δ (Q8IU85 whole entry): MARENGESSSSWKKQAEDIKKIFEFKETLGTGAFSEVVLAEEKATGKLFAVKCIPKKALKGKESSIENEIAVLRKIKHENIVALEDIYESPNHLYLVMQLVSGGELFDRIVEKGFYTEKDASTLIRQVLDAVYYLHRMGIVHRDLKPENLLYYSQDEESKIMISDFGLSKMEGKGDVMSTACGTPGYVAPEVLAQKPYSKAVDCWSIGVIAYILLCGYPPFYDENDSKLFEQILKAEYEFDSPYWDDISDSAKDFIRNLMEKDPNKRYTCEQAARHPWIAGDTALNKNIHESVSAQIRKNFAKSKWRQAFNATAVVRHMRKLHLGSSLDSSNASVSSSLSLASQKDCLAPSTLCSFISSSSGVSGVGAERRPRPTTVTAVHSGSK
Chain of EPHA4 (P54764 20-986): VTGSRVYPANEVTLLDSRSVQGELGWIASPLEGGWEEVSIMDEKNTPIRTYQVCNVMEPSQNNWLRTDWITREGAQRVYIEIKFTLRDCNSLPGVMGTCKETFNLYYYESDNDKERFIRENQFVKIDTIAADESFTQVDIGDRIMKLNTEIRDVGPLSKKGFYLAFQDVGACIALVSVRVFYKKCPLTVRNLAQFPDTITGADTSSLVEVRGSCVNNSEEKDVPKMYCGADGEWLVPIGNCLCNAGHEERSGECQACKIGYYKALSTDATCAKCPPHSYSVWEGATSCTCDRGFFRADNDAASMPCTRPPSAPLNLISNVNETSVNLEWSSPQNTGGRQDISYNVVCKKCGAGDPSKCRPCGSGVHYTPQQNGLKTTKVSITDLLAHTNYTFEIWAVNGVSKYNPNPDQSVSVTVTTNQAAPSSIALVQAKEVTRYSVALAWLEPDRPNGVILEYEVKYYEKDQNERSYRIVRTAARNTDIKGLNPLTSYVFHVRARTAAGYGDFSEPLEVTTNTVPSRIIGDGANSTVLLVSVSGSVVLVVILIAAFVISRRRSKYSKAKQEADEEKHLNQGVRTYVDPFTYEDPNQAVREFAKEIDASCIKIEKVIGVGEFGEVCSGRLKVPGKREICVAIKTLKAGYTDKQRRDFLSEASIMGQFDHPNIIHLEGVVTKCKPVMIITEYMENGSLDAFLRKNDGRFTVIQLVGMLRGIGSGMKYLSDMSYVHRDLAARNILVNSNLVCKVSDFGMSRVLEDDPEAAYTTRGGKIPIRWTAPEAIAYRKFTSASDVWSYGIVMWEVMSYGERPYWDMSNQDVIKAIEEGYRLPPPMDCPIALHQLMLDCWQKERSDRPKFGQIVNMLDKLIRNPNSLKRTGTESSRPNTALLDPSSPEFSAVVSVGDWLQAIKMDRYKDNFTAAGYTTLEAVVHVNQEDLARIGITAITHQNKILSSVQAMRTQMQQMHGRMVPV
Chain of PIM2 (Q9P1W9 whole entry): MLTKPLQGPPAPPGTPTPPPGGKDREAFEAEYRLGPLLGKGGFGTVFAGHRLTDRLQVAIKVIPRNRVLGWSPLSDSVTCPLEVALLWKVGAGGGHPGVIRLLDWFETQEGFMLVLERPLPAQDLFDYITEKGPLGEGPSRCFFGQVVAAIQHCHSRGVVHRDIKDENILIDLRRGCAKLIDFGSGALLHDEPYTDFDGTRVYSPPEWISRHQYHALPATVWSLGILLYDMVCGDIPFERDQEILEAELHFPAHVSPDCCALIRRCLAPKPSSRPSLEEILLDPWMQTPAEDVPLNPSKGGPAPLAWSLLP

CCC1(c2ccccc2)C2=C(CC(C)(C)CC2=O)Nc2ncsc21 (centres unmarked) [Compound 1, 9-Ethyl-6,6-dimethyl-9-phenyl-5,6,7,9-tetrahydrothiazolo[4,5-b]quinolin-8(4H)-one]
inhibition at 10 µM (ALK(G1202R)): -5%
inhibition at 10 µM (CDK6/CycD3): 5.5%
inhibition at 10 µM (SRPK2): 3.1%
inhibition at 10 µM (TNK1): 11.7%
inhibition at 10 µM (CaMK1δ): 1.3%
inhibition at 10 µM (PIM2): 0.3%
inhibition at 10 µM (SGK2): -8.7%
inhibition at 10 µM (EEF2K): 1.6%
inhibition at 10 µM (AurA/TPX2): -2.7%
inhibition at 10 µM (RON): -3.9%
inhibition at 10 µM (MAP4K2): 1.1%
inhibition at 10 µM (TAK1-TAB1_Cascade): 8%
inhibition at 10 µM (PKCη): 9.3%
inhibition at 10 µM (PDHK4): 8.3%
inhibition at 10 µM (PAK5): 2.9%
inhibition at 10 µM (FGR): 10.6%
inhibition at 10 µM (ROS): -0.2%
inhibition at 10 µM (CLK1): -7.2%
inhibition at 10 µM (PLK1): -5.3%
inhibition at 10 µM (JAK2): -0.9%
inhibition at 10 µM (CLK3): 3.9%
inhibition at 10 µM (EPHA4): 0%
inhibition at 10 µM (PKACα): -0.6%
inhibition at 10 µM (DYRK1A): -5.8%
inhibition at 10 µM (MAP3K3_Cascade): 11.1%
inhibition at 10 µM (SLK): -0.6%
inhibition at 10 µM (PIM1): 0%
inhibition at 10 µM (PKCα): -11%
inhibition at 10 µM (TEC): -9.1%
inhibition at 10 µM (MAP3K5_Cascade): 5.4%
inhibition at 10 µM (DLK_Cascade): 2.5%
inhibition at 10 µM (FER): -7.5%
inhibition at 10 µM (ROCK2): -3.1%
inhibition at 10 µM (BTK): -1.6%
inhibition at 10 µM (SGK3): -2.3%
inhibition at 10 µM (SYK): -5.8%
inhibition at 10 µM (MST3): 1.4%
inhibition at 10 µM (AMPKα2/β1/γ1): -4.1%
inhibition at 10 µM (AKT2): 1%
inhibition at 10 µM (MAPKAPK 5): -8.5%
inhibition at 10 µM (PKN1): 8.9%
